Calls of active or inactive are those of the source. The rule behind the calls is not given here.
Key:
[1] = test system: Vaccinia-infected cells, mCherry/Venus stage reporter fluorescence; assay: Vaccinia infected cells, stage specific inhibitors, mcherry venus reporter fluorescence, confirmatory dose response (AID 1053168); conditions: measured here: mCherry reporter AC50
[2] = as above; conditions: Vaccinia-infected cells, mCherry/Venus stage reporter fluorescence; at 21 µM (top of the series)

## C[C@H](O)C#Cc1ccc2c(c1)O[C@@H](CN(C)Cc1ccc(-c3ccccc3)cc1)[C@H](C)CN([C@H](C)CO)S2(=O)=O
[1]
  AC50: > 42 µM
[2]
  activity change, negative = inhibition: -20.1% (inactive)

From PubChem BioAssay AID1053168 (Broad Institute, 2014)
